Series [1] is described as follows: Determination of thermodynamic solubility in phosphate buffer. As to conditions: ammonium phosphate buffer pH7.4, 290 mOsm, 37° C., nominal 1 mg/mL; for solubility at 1 h: pH 7.4, aqueous buffer, thermodynamic from solid, read-out: Solubility in PO4 buffer. The format is physicochemical. As for the experimental part: Determination of Thermodynamic Solubility in Phosphate Buffer
The thermodynamic solubility of compound was determined in Ammonium Phosphate Buffer (pH7.4, 290 mOsm). Compounds were made up at a nominal concentration of 1 mg/mL, vortexed then placed on a shaker for 1 h, 37° C. at approximately 950 rpm. Following incubation samples were transferred to eppendorf tubes and centrifuged at 15,000 g (r.c.f.) for 10 minutes at 37° C. The concentration of compound in the supernatant was determined by LC-MS/MS analysis using a calibration line prepared from a DMSO stock.

The target of a further series is Human plasma kallikrein (Homo sapiens (Human), UniProt P03952). The series is described as follows: Determination of the IC50 for plasma kallikrein. The series is classed as biochemical. As to conditions: 37° C., substrate H-DPro-Phe-Arg-AFC, read-out: IC50 (human PKal). An outline of the steps:
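Residual activity (initial rate, absorbance at 410 nm) gave the IC50. Reactions at 37° C combined human plasma kallikrein, substrate H-DPro-Phe-Arg-AFC and a range of inhibitor concentrations.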

Another series addresses Human KLK1 (Homo sapiens (Human), UniProt P06870). In words: Determination of the IC50 for KLK1. The series is classed as biochemical. As to conditions: Human KLK1, 37° C., substrate H-DVal-Leu-Arg-AFC; Table 13. An outline of the steps: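 Human KLK1 incubated at 37° C with fluorogenic substrate H-DVal-Leu-Arg-AFC and a range of test compound concentrations. Residual activity taken as initial reaction rate from absorbance change at 410 nm; IC50 derived from these rates.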

This is an account of results in US9234000B2, “Benzylamine derivatives as inhibitors of plasma kallikrein” (KalVista Pharmaceuticals Limited, priority 2011, dated 2016).

Converted amounts (≈) assume the structure as drawn. Some results are limits rather than exact numbers.

Sequence of Human KLK1 (P06870 25-262): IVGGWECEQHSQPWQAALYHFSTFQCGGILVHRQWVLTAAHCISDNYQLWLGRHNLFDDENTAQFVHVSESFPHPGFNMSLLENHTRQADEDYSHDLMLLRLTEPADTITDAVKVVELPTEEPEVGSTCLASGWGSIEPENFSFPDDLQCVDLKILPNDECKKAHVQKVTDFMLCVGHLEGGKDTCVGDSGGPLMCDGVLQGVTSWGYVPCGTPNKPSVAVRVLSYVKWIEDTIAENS
Sequence of Human plasma kallikrein (P03952 391-638): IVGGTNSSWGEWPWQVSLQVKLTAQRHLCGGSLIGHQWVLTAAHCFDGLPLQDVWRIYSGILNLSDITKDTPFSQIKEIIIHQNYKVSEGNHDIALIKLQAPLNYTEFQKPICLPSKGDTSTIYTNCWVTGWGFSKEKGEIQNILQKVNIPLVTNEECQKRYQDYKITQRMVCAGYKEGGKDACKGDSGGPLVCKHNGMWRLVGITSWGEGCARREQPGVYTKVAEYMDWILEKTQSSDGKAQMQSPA
Sequence of Human plasma kallikrein (P03952 20-390 partner): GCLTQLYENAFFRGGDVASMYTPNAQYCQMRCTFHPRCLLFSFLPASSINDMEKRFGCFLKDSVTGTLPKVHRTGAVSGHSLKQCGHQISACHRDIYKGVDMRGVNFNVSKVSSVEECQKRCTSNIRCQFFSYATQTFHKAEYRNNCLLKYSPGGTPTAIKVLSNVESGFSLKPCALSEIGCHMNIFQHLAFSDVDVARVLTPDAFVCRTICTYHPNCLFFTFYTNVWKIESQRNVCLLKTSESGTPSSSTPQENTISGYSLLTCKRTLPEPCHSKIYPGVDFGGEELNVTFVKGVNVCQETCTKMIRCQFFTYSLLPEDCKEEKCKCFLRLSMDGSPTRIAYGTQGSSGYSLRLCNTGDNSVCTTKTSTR

Broadly, the solubility is the concentration that dissolves in the medium under given conditions. By IC50 is commonly meant the point on the concentration scale where inhibition reaches its midpoint. Turning to `CCOc1ccc(C[C@@H](NC(=O)c2ccc(F)cc2)C(=O)N[C@@H](Cc2ccccc2)C(=O)NCc2ccc(CN)cc2)cc1` [Example 99, N-[(R)-1-[(S)-1-(4-Aminomethyl-benzylcarbamoyl)-2-phenyl-ethylcarbamoyl]-2-(4-ethoxy-phenyl)-ethyl]-4-fluoro-benzamide], the solubility at 1 h in series [1] turned out to be 2.88 µg/mL (≈ 4.83 µM). Also, the IC50 was 0.095 µM at Human plasma kallikrein and > 10 µM against Human KLK1.

Consider `CCOc1ccc(C[C@@H](NC(=O)c2sccc2Cl)C(=O)N[C@@H](Cc2ccccc2)C(=O)NCc2ccc(CN)cc2)cc1` [Example 116, 3-Chloro-thiophene-2-carboxylic acid [(R)-1-[(S)-1-(4-aminomethyl-benzylcarbamoyl)-2-phenyl-ethylcarbamoyl]-2-(4-ethoxy-phenyl)-ethyl]-amide], for which the solubility at 1 h in series [1] amounted to 1.39 µg/mL (≈ 2.24 µM). The IC50 at Human plasma kallikrein came out at 0.018 µM; against Human KLK1, 6.3 µM.

Consider `CCOc1ccc(C[C@@H](NC(=O)c2sccc2C)C(=O)N[C@@H](Cc2ccccc2)C(=O)NCc2ccc(CN)cc2)cc1` [Example 119, 3-Methyl-thiophene-2-carboxylic acid [(R)-1-[(S)-1-(4-aminomethyl-benzylcarbamoyl)-2-phenyl-ethylcarbamoyl]-2-(4-ethoxy-phenyl)-ethyl]-amide], for which the solubility at 1 h in series [1] worked out at 1.61 µg/mL (≈ 2.69 µM). Also, the IC50 at Human plasma kallikrein stood at 0.015 µM; on Human KLK1, 6.1 µM.

For `CCOc1ccc(C[C@@H](NC(=O)c2[nH]ccc2C)C(=O)N[C@@H](Cc2ccccc2)C(=O)NCc2ccc(CN)cc2)cc1` [Example 124, 3-Methyl-1H-pyrrole-2-carboxylic acid [(R)-1-[(S)-1-(4-aminomethyl-benzylcarbamoyl)-2-phenyl-ethylcarbamoyl]-2-(4-ethoxy-phenyl)-ethyl]-amide], the solubility at 1 h in series [1] was determined as 64.5 µg/mL (≈ 111 µM). The values for the IC50 on Human plasma kallikrein and on Human KLK1 were 0.02 µM and 8.4 µM, respectively.

Take `CCOc1ccc(C[C@@H](NC(=O)c2sccc2N)C(=O)N[C@@H](Cc2ccccc2)C(=O)NCc2ccc(CN)cc2)cc1` [Example 125, 3-Amino-thiophene-2-carboxylic acid [(R)-1-[(S)-1-(4-aminomethyl-benzylcarbamoyl)-2-phenyl-ethylcarbamoyl]-2-(4-ethoxy-phenyl)-ethyl]-amide]: the solubility at 1 h in series [1] is 43.6 µg/mL (≈ 72.7 µM). The IC50 at Human plasma kallikrein was determined as 0.01 µM; on Human KLK1 it was 7 µM.

Consider `CCOc1ccc(C[C@@H](NC(=O)c2ccccc2)C(=O)N[C@@H](Cc2ccccn2)C(=O)NCc2ccc(CN)cc2)cc1` [Example 140, N-[(R)-1-[(S)-1-(4-Aminomethyl-benzylcarbamoyl)-2-pyridin-2-yl-ethylcarbamoyl]-2-(4-ethoxy-phenyl)-ethyl]-benzamide], for which the solubility at 1 h in series [1] was 79.6 µg/mL (≈ 137 µM). In addition, the IC50 at Human plasma kallikrein was 0.045 µM; against Human KLK1 it was > 10 µM.

For the molecule `CCOc1ccc(C[C@@H](NC(=O)c2ccccc2)C(=O)N[C@@H](Cc2ccc(Cl)c(Cl)c2)C(=O)NCc2ccc(CN)cc2)cc1` [Example 141, N-[(R)-1-[(S)-1-(4-Aminomethyl-benzylcarbamoyl)-2-(3,4-dichloro-phenyl)-ethylcarbamoyl]-2-(4-ethoxy-phenyl)-ethyl]-benzamide], the solubility at 1 h in series [1] was 0.15 µg/mL (≈ 0.232 µM). The figures for the IC50 at Human plasma kallikrein and against Human KLK1 were 0.055 µM and > 10 µM, respectively.

With `CCOc1ccc(C[C@@H](NC(=O)c2ccccc2)C(=O)N[C@@H](Cc2ccc(F)cc2)C(=O)NCc2ccc(CN)cc2)cc1` [Example 143, N-[(R)-1-[(S)-1-(4-Aminomethyl-benzylcarbamoyl)-2-(4-fluoro-phenyl)-ethylcarbamoyl]-2-(4-ethoxy-phenyl)-ethyl]-benzamide], the solubility at 1 h in series [1] is 2.86 µg/mL (≈ 4.79 µM). The IC50 was 0.083 µM on Human plasma kallikrein and > 10 µM on Human KLK1.

For `CCOc1ccc(C[C@@H](NC(=O)c2ccccc2)C(=O)N[C@@H](Cc2cccnc2)C(=O)NCc2ccc(CN)cc2)cc1` [Example 145, N-[(R)-1-[(S)-1-(4-Aminomethyl-benzylcarbamoyl)-2-pyridin-3-yl-ethylcarbamoyl]-2-(4-ethoxy-phenyl)-ethyl]-benzamide], the solubility at 1 h in series [1] turned out to be 68.9 µg/mL (≈ 119 µM). For the same molecule, the IC50 on Human plasma kallikrein was 0.025 µM; at Human KLK1, > 10 µM.

In the case of `CCOc1ccc(C[C@@H](NC(=O)c2ccccc2)C(=O)N[C@@H](Cc2cccs2)C(=O)NCc2ccc(CN)cc2)cc1` [Example 150, N-[(R)-1-[(S)-1-(4-Aminomethyl-benzylcarbamoyl)-2-thiophen-2-yl-ethylcarbamoyl]-2-(4-ethoxy-phenyl)-ethyl]-benzamide], the solubility at 1 h in series [1] came out at 0.12 µg/mL (≈ 0.205 µM). For the same molecule, the IC50 at Human plasma kallikrein is 0.051 µM; against Human KLK1, > 10 µM.

On to `CCOc1ccc(C[C@@H](NC(=O)c2ccccc2)C(=O)N[C@@H](Cc2ccsc2)C(=O)NCc2ccc(CN)cc2)cc1` [Example 151], for which the “solubility in PO4 buffer” value in series [1] (1 h) turned out to be 4.31 µg/mL (≈ 7.37 µM). The IC50 on Human plasma kallikrein is 0.009 µM; against Human KLK1, > 10 µM.

On to `CCOc1ccc(C[C@@H](NC(=O)c2ccccc2)C(=O)N[C@@H](Cc2cscn2)C(=O)NCc2ccc(CN)cc2)cc1` [Example 152, N-[(R)-1-[(S)-1-(4-Aminomethyl-benzylcarbamoyl)-2-thiazol-4-yl-ethylcarbamoyl]-2-(4-ethoxy-phenyl)-ethyl]-benzamide], for which the solubility at 1 h in series [1] turned out to be 122 µg/mL (≈ 209 µM). In addition, the IC50 at Human plasma kallikrein is 0.023 µM; against Human KLK1, > 10 µM.

For `CCOc1ccc(C[C@@H](NC(=O)c2ccccc2)C(=O)N[C@@H](Cc2csc3ccccc23)C(=O)NCc2ccc(CN)cc2)cc1` [Example 153, N-[(R)-1-[(S)-1-(4-Aminomethyl-benzylcarbamoyl)-2-benzo[b]thiophen-3-yl-ethylcarbamoyl]-2-(4-ethoxy-phenyl)-ethyl]-benzamide], in series [1], the solubility at 1 h came to 0.19 µg/mL (≈ 0.299 µM). Also, the IC50 is 0.01 µM on Human plasma kallikrein and > 10 µM at Human KLK1.

In the case of `CCOc1ccc(C[C@@H](NC(=O)c2ccccc2)C(=O)N[C@@H](Cc2ccccc2)C(=O)NCc2ccc(CN)c(F)c2)cc1` [Example 154, N-[(R)-1-[(S)-1-(4-Aminomethyl-3-fluoro-benzylcarbamoyl)-2-phenyl-ethylcarbamoyl]-2-(4-ethoxy-phenyl)-ethyl]-benzamide], in series [1], the solubility at 1 h is 3.14 µg/mL (≈ 5.26 µM). Moreover, the IC50 on Human plasma kallikrein was 0.021 µM; against Human KLK1, > 10 µM.

For the molecule `CCOc1ccc(C[C@@H](NC(=O)c2ccccc2)C(=O)N[C@@H](Cc2ccccc2)C(=O)NCc2ccc(CN)c(Cl)c2)cc1` [Example 155, N-[(R)-1-[(S)-1-(4-Aminomethyl-3-chloro-benzylcarbamoyl)-2-phenyl-ethylcarbamoyl]-2-(4-ethoxy-phenyl)-ethyl]-benzamide], the solubility at 1 h in series [1] was 0.44 µg/mL (≈ 0.718 µM). In addition, the IC50 on Human plasma kallikrein is 0.022 µM; against Human KLK1, > 10 µM.

For `CCOc1ccc(C[C@@H](NC(=O)c2ccc(OC)cc2)C(=O)N[C@@H](Cc2ccccn2)C(=O)NCc2ccc(CN)cc2)cc1` [Example 158, N-[(R)-1-[(S)-1-(4-Aminomethyl-benzylcarbamoyl)-2-pyridin-2-yl-ethylcarbamoyl]-2-(4-ethoxy-phenyl)-ethyl]-4-methoxy-benzamide], the solubility at 1 h in series [1] was found to be 70.6 µg/mL (≈ 116 µM). Besides, the IC50 was 0.047 µM on Human plasma kallikrein and > 10 µM at Human KLK1.
